{"source": "patent US20080070846A1", "about": "“TREATING ACUTE EXACERBATIONS OF ASTHMA USING A KETOLIDE” (Aventis Pharmaceuticals Inc, priority 2004, published 2008)", "key": {"[1]": {"test_system": "asthmatic patients", "conditions": "cited from earlier work"}, "[2]": {"test_system": "adults following an acute asthma exacerbation", "conditions": "oral prednisone, over seven to ten days; cited from earlier work"}, "[3]": {"test_system": "adults with mild asthma exacerbations", "conditions": "after 16 days of tapering oral prednisone; from 73% at onset of treatment; cited from earlier work"}, "[4]": {"test_system": "children with an acute exacerbation of asthma", "conditions": "oral prednisone, after 7 days; pediatric, mean age 8.0 years; cited from earlier work"}, "[5]": {"test_system": "adult patients with acute asthma", "conditions": "after seven to ten days of oral prednisone; cited from earlier work"}, "[6]": {"test_system": "C. pneumoniae", "conditions": "mice with acute C. pneumoniae infection; cited from earlier work"}, "[7]": {"test_system": "patients with acute exacerbations of asthma", "assay": "In-clinic pulmonary function tests (PEF, FEV1, FVC, FEF25-75%)", "type": "in vivo, human", "procedure": "(§1) Patients are centrally randomized (1:1) using computer-generated codes to receive blinded treatment with either oral telithromycin 800 mg once daily (two 400 mg capsules) or placebo (two capsules identical to those containing active treatment) for ten days using a proprietary Interactive Voice Recognition System to balance the treatment assignments within each study center. The first clinic visit (Visit 1), occurring within 24 hours of initial presentation is considered to be the study baseline. At baseline, patients are randomized to telithromycin or placebo. Telephone contact is made at 24-72 hours post-randomization to review concomitant medications taken and adverse events. Visit 2 is at the end of treatment (Days 11-14), Visit 3 is a post-treatment visit (Day 28 [±3 days]), and Visit 4 is the final visit (Day 42 [±3 days]). At each visit, patients undergo respiratory examinations, pulmonary function tests, health outcome assessments, and have a review of adverse events. Vital signs and concomitant medications are also recorded. Spontaneous or induced sputum samples nasopharyngeal swabs, and serum for serology for atypical pathogens are collected at Visits 1 and 3. Patients receiving at least one dose of study treatment and having one primary efficacy endpoint value are included in the intention to treat (ITT) population.\nPEF in liter/min, FEV1 in liters, FVC in liters, and FEF25-75% in liters/sec are recorded at clinic visits and are performed according to American Thoracic Society (ATS) standards. [see American Thoracic Society. Standardization of Spirometry. Am. J. Respir. Crit. Care Med. 1995; 152: 1107-1136].\n(§2) Efficacy endpoints are analyzed using an analysis of covariance (ANCOVA) model using factors for treatment, study center (investigator), treatment-by-center interaction, and baseline as covariates. Longitudinal analyses are based on the average over the 6-week study period. The treatment group means and the between-group differences are estimated using the ANCOVA model and between-group tests are used to compare telithromycin with placebo. The primary efficacy assessment time point is Visit 2 (end of treatment; Days 11-14).\nIn the models used, treatment effect is estimated while adjusting for the factor of center and for baseline values as covariates. This adjusted model accounts for the difference in the number of patients enrolled at each center. All mean data for efficacy outcomes are presented as least square (LS) means as they result from this adjusted model."}, "[8]": {"test_system": "patients with acute exacerbations of asthma", "assay": "Morning home PEF recorded on diary cards", "type": "in vivo, human", "conditions": "patient-recorded; placebo 66.8 L/min", "procedure": "(§3) Asthma symptoms are measured using a modified version of a previously published diary card symptom score in which patients rate the frequency and severity of symptoms on a 7-point Likert scale. [see Santanello N. C., Barber B. L., Reiss T. F, Friedman B. S., Juniper E. F., Zhang J., Measurement Characteristics of Two Asthma Symptom Diary Scales for Use in Clinical Trials. Eur. Respir. J. 1997; 10:646-651]. Daily patient diaries are also used to record asthma symptoms, study treatment dosing, albuterol use, and other concomitant medications. Patient's home PEF values are also recorded in triplicate twice daily."}, "[9]": {"test_system": "patients with acute exacerbations of asthma", "assay": "Asthma diary symptom scores in double-blind, randomized, placebo-controlled study", "type": "in vivo, human", "procedure": "as §1, §3, §2\nImprovements in asthma symptoms assessed by the patients during the ten days of study treatment are analyzed using analysis of variance (ANOVA)/ANCOVA. Time to 50% reduction of asthma symptoms is summarized for treatment groups using a Kaplan-Meier procedure."}, "[10]": {"test_system": "patients with acute exacerbations of asthma", "assay": "Tolerability and safety assessment (adverse-event recording)", "type": "in vivo, human", "procedure": "Clinical safety is assessed in all patients by adverse-event recording and standard monitoring. Patients who receive at least one dose of […] and at least one safety assessment during treatment are considered evaluable for safety. All spontaneously reported adverse events and those identified by investigator observation are recorded and evaluated in terms of severity and causality."}}, "data": [{"smiles": "CC[C@H]1OC(=O)[C@H](C)[C@@H](O[C@H]2C[C@@](C)(OC)[C@@H](O)[C@H](C)O2)[C@H](C)[C@@H](O[C@@H]2O[C@H](C)C[C@H](N(C)C)[C@H]2O)[C@](C)(OC)C[C@@H](C)C(=O)[C@H](C)[C@@H](O)[C@]1(C)O", "note": "[clarithromycin]", "values": [{"measurement": "severity of bronchial hyperresponsiveness", "setting": "[1]", "result": "reduce the severity of bronchial hyperresponsiveness"}]}, {"smiles": "C[C@]12C=CC(=O)C=C1CC[C@@H]1[C@@H]2C(=O)C[C@@]2(C)[C@H]1CC[C@]2(O)C(=O)CO", "note": "[prednisone]", "values": [{"measurement": "FEV1 increase, measured after bronchodilator use", "setting": "[2]", "result": 0.55, "unit": "L"}, {"measurement": "PEF increase, measured after bronchodilator use", "setting": "[2]", "result": 77, "unit": "L/min"}, {"measurement": "PEF % predicted after treatment", "setting": "[3]", "result": 85, "unit": "%"}, {"measurement": "mean increase in FEF25-75%", "setting": "[4]", "result": 0.41, "unit": "L/s"}, {"measurement": "mean increase in FEV1", "setting": "[4]", "result": 0.37, "unit": "L"}, {"measurement": "mean increase in FVC", "setting": "[4]", "result": 0.45, "unit": "L"}, {"measurement": "mean increase in PEF", "setting": "[4]", "result": 78, "unit": "L/min"}, {"measurement": "PEF improvement", "setting": "[5]", "result": 46, "unit": "L/min"}]}, {"smiles": "CC[C@H]1OC(=O)[C@H](C)C(=O)[C@H](C)[C@@H](O[C@@H]2O[C@H](C)C[C@H](N(C)C)[C@H]2O)[C@](C)(OC)C[C@@H](C)C(=O)[C@H](C)[C@H]2N(CCCCn3cnc(-c4cccnc4)c3)C(=O)O[C@]12C", "note": "[telithromycin]", "values": [{"measurement": "culture and PCR positivity in the lungs", "setting": "[6]", "result": "reduce culture and PCR positivity"}, {"measurement": "Mean change from baseline to end of treatment, FEF25-75%", "setting": "[7]; 800 mg/day for ten days, N=126", "result": 0.85, "unit": "L/s"}, {"measurement": "Mean change from baseline to end of treatment, FVC", "setting": "[7]; 800 mg/day for ten days, N=126", "result": 0.58, "unit": "L"}, {"measurement": "Mean change from baseline to end of treatment, FEV1", "setting": "[7]; 800 mg/day for ten days, N=126, LS mean, Visit 2", "result": 0.63, "unit": "L"}, {"measurement": "Mean change from baseline to end of treatment, PEF", "setting": "[7]; 800 mg/day for ten days, N=126, in-clinic", "result": 115.8, "unit": "L/min"}, {"measurement": "mean improvement in FEV1, subgroup with infection at baseline", "setting": "[7]; C. pneumoniae and/or M. pneumoniae infection at baseline, 61 telithromycin patients", "result": 0.67, "unit": "L"}, {"measurement": "mean improvement in FEV1, subgroup without evidence of infection", "setting": "[7]; no evidence of C. pneumoniae/M. pneumoniae infection, 44 telithromycin patients", "result": 0.65, "unit": "L"}, {"measurement": "difference between treatments in FEV1 improvement, subgroup with infection at baseline", "setting": "[7]; telithromycin vs placebo, 95% CI 0.11, 0.47 L, P=0.002", "result": 0.29, "unit": "L"}, {"measurement": "difference between treatments in FEV1 improvement, subgroup without evidence of infection", "setting": "[7]; telithromycin vs placebo, 95% CI −0.17, 0.52 L, P=0.309", "result": 0.18, "unit": "L"}, {"measurement": "Difference between treatments in mean change, FEV1", "setting": "[7]; telithromycin vs placebo, P=0.001", "result": 0.29, "unit": "L"}, {"measurement": "Difference between treatments in mean change, FEF25-75%", "setting": "[7]; telithromycin vs placebo, P=0.004", "result": 0.40, "unit": "L/s"}, {"measurement": "Difference between treatments in mean change, FVC", "setting": "[7]; telithromycin vs placebo, P=0.006", "result": 0.27, "unit": "L"}, {"measurement": "Difference between treatments in mean change, PEF", "setting": "[7]; telithromycin vs placebo, P=0.036", "result": 26.9, "unit": "L/min"}, {"measurement": "improvement in morning home PEF from baseline over the treatment period (mean)", "setting": "[8]", "result": 78.3, "unit": "L/min"}, {"measurement": "median time to a 50% reduction in symptoms", "setting": "[9]; Kaplan-Meier, placebo 8 days, P=0.031", "result": 5, "unit": "days"}, {"measurement": "mean change in symptom score from baseline over the study period", "setting": "[9]; entire 6-week observation period, 800 mg once daily for ten days", "result": "−51", "unit": "%"}, {"measurement": "mean percent reduction in symptom severity from baseline to the end of treatment", "setting": "[9]; oral 800 mg once daily for ten days, added to usual care, ITT N=126", "result": "−51", "unit": "%"}, {"measurement": "proportion of patients with symptom-free days during the treatment period", "setting": "[9]; placebo 8%, P=0.006", "result": 16, "unit": "%"}, {"measurement": "mean difference between treatments in change in symptom score over the study period", "setting": "[9]; telithromycin vs placebo, 6-week period, 95% CI −24.75, −0.89%, P=0.035", "result": "−13", "unit": "%"}, {"measurement": "mean difference between treatments in percent reduction in symptom severity, baseline to end of treatment", "setting": "[9]; telithromycin vs placebo, 95% CI −36.64, −7.90%, P=0.003", "result": "−22", "unit": "%"}, {"measurement": "tolerability", "setting": "[10]; 800 mg once daily for ten days", "result": "well tolerated"}, {"measurement": "TEAEs considered possibly related to treatment, % of patients", "setting": "[10]; 132 patients evaluable for safety", "result": 20.5, "unit": "%"}, {"measurement": "frequency of TEAEs", "setting": "[10]; 132 patients evaluable for safety, placebo 39.7%", "result": 38.6, "unit": "%"}, {"measurement": "diarrhea possibly related to treatment", "setting": "[10]; placebo 3.8%", "result": 9.8, "unit": "%"}]}]}
